Reference: ChEMBL document CHEMBL1201862, “PubChem BioAssay data set” (2004)
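Five concentrations, 48 hours, 96-well plates. GI50: concentration for 50% inhibition of growth.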 The source made the active and inactive calls. Cut-off read from the data, not from the text of the source: active = GI50 up to about 1.1 µM and inactive = higher.

Tests used:
Assay in all cases: NCI tumour cell line growth inhibition, 48 h
Malme-3M = tested on: Malme-3M
MDA-MB-435 = tested on: MDA-MB-435
RXF 393 = tested on: RXF 393
SNB-75 = tested on: SNB-75
TK-10 = tested on: TK-10
HOP-92 = tested on: HOP-92
SK-MEL-28 = tested on: SK-MEL-28
KM12 = tested on: KM12
HL-60 = tested on: HL-60
ACHN = tested on: ACHN
OVCAR-3 = tested on: OVCAR-3
MDA-MB-231 = tested on: MDA-MB-231
M14 = tested on: M14
SF-295 = tested on: SF-295
SK-MEL-2 = tested on: SK-MEL-2
Hs-578T = tested on: Hs-578T
CAKI-1 = tested on: CAKI-1
SW-620 = tested on: SW-620
RPMI-8226 = tested on: RPMI-8226
BT-549 = tested on: BT-549
IGROV-1 = tested on: IGROV-1
CCRF-CEM = tested on: CCRF-CEM
EKVX = tested on: EKVX
OVCAR-4 = tested on: OVCAR-4
DU-145 = tested on: DU-145
SK-MEL-5 = tested on: SK-MEL-5
OVCAR-8 = tested on: OVCAR-8
SNB-19 = tested on: SNB-19
HT-29 = tested on: HT-29
U-251 = tested on: U-251
SK-OV-3 = tested on: SK-OV-3
HCT-15 = tested on: HCT-15
UACC-62 = tested on: UACC-62
HOP-62 = tested on: HOP-62
LOX IMVI = tested on: LOX IMVI
NCI-H522 = tested on: NCI-H522
T47D = tested on: T47D
MOLT-4 = tested on: MOLT-4
A498 = tested on: A498
NCI/ADR-RES = tested on: NCI/ADR-RES
786-0 = tested on: 786-0
MDA-N = tested on: MDA-N
SN12C = tested on: SN12C
HCC 2998 = tested on: HCC 2998
SF-539 = tested on: SF-539
A549 = tested on: A549
NCI-H226 = tested on: NCI-H226
UACC-257 = tested on: UACC-257
OVCAR-5 = tested on: OVCAR-5
HCT-116 = tested on: HCT-116
K562 = tested on: K562
SR = tested on: SR
NCI-H23 = tested on: NCI-H23
PC-3 = tested on: PC-3
NCI-H460 = tested on: NCI-H460
SF-268 = tested on: SF-268
COLO 205 = tested on: COLO 205
MCF7 = tested on: MCF7

For `O=C1Sc2cc3ccccc3cc2C(=O)Sc2ccc(Br)cc21`, the GI50 (Malme-3M) was 11.9 µM (inactive), the GI50 (MDA-MB-435) was 3.48 µM (inactive) and the GI50 (RXF 393) was 2.48 µM (inactive). For the same compound, the GI50 (SNB-75) was 4.84 µM (inactive), the GI50 (TK-10) was 5.33 µM (inactive) and the GI50 (HOP-92) was 7.29 µM (inactive). For the same compound, the GI50 (SK-MEL-28) was 3.13 µM (inactive), the GI50 (KM12) was 7.16 µM (inactive) and the GI50 (HL-60) was 3.9 µM (inactive). For the same compound, the GI50 (ACHN) was 1.66 µM (inactive), the GI50 (OVCAR-3) was 1.79 µM (inactive) and the GI50 (MDA-MB-231) was 4.09 µM (inactive). For the same compound, the GI50 (M14) was 3.54 µM (inactive), the GI50 (SF-295) was 13.1 µM (inactive) and the GI50 (SK-MEL-2) was 4.56 µM (inactive). The GI50 (Hs-578T) was 5.09 µM (inactive), the GI50 (CAKI-1) was 4.73 µM (inactive) and the GI50 (SW-620) was 3.07 µM (inactive). The GI50 (RPMI-8226) was 1.65 µM (inactive), the GI50 (BT-549) was 3.29 µM (inactive) and the GI50 (IGROV-1) was 3.78 µM (inactive). For the same compound, the GI50 (CCRF-CEM) was 1.12 µM (active), the GI50 (EKVX) was 14.3 µM (inactive) and the GI50 (OVCAR-4) was 14.6 µM (inactive). The GI50 (DU-145) was 4.84 µM (inactive), the GI50 (SK-MEL-5) was 8.3 µM (inactive) and the GI50 (OVCAR-8) was 2.51 µM (inactive). The GI50 (SNB-19) was 15.2 µM (inactive), the GI50 (HT-29) was 3.41 µM (inactive) and the GI50 (U-251) was 2.06 µM (inactive). The GI50 (SK-OV-3) was 15.5 µM (inactive), the GI50 (HCT-15) was 2.43 µM and the GI50 (UACC-62) was 4.93 µM (inactive). The GI50 (HOP-62) was 6.21 µM (inactive), the GI50 (LOX IMVI) was 1.76 µM (inactive) and the GI50 (NCI-H522) was 1.82 µM (inactive). For the same compound, the GI50 (T47D) was 3.33 µM (inactive), the GI50 (MOLT-4) was 3.55 µM (inactive) and the GI50 (A498) was 19 µM (inactive). For the same compound, the GI50 (NCI/ADR-RES) was 3.67 µM (inactive), the GI50 (786-0) was 2.07 µM (inactive) and the GI50 (MDA-N) was 4.51 µM (inactive). The GI50 (SN12C) was 3.93 µM (inactive), the GI50 (HCC 2998) was 4.57 µM (inactive) and the GI50 (SF-539) was 7.93 µM (inactive). For the same compound, the GI50 (A549) was 8.89 µM (inactive), the GI50 (NCI-H226) was 14.9 µM (inactive) and the GI50 (UACC-257) was 5.81 µM (inactive). For the same compound, the GI50 (OVCAR-5) was 11.8 µM (inactive), the GI50 (HCT-116) was 5.45 µM (inactive) and the GI50 (K562) was 4.17 µM (inactive). For the same compound, the GI50 (SR) was 2.45 µM (inactive), the GI50 (NCI-H23) was 8.47 µM (inactive) and the GI50 (PC-3) was 3.43 µM (inactive). For the same compound, the GI50 (NCI-H460) was 7.26 µM (inactive), the GI50 (SF-268) was 6.08 µM (inactive) and the GI50 (COLO 205) was 12.8 µM (inactive). The GI50 (MCF7) was 4.46 µM (inactive).
In the case of `N#CC(C#N)=CNC(N)=S`, the GI50 (Malme-3M) is reported as > 100 µM (inactive), the GI50 (MDA-MB-435) is reported as > 100 µM (inactive) and the GI50 (RXF 393) is reported as > 100 µM (inactive). For the same compound, the GI50 (SNB-75) was > 100 µM (inactive), the GI50 (HOP-92) was > 100 µM (inactive) and the GI50 (SK-MEL-28) was > 100 µM (inactive). For the same compound, the GI50 (KM12) was > 100 µM (inactive), the GI50 (HL-60) was > 100 µM (inactive) and the GI50 (ACHN) was > 100 µM (inactive). The GI50 (OVCAR-3) was 1.5 µM (inactive), the GI50 (MDA-MB-231) was > 100 µM (inactive) and the GI50 (M14) was > 100 µM (inactive). For the same compound, the GI50 (SF-295) was > 100 µM (inactive), the GI50 (SK-MEL-2) was > 100 µM (inactive) and the GI50 (Hs-578T) was > 100 µM (inactive). For the same compound, the GI50 (CAKI-1) was > 100 µM (inactive), the GI50 (SW-620) was > 100 µM (inactive) and the GI50 (RPMI-8226) was > 100 µM (inactive). For the same compound, the GI50 (BT-549) was > 100 µM (inactive), the GI50 (IGROV-1) was > 100 µM (inactive) and the GI50 (CCRF-CEM) was > 100 µM (inactive). For the same compound, the GI50 (EKVX) was > 100 µM (inactive), the GI50 (OVCAR-4) was > 100 µM (inactive) and the GI50 (DU-145) was > 100 µM (inactive). The GI50 (SK-MEL-5) was > 100 µM (inactive), the GI50 (OVCAR-8) was > 100 µM (inactive) and the GI50 (SNB-19) was > 100 µM (inactive). The GI50 (HT-29) was > 100 µM (inactive), the GI50 (U-251) was > 100 µM (inactive) and the GI50 (SK-OV-3) was > 100 µM (inactive). The GI50 (HCT-15) was > 100 µM, the GI50 (UACC-62) was > 100 µM (inactive) and the GI50 (HOP-62) was > 100 µM (inactive). For the same compound, the GI50 (LOX IMVI) was > 100 µM (inactive), the GI50 (NCI-H522) was > 100 µM (inactive) and the GI50 (T47D) was > 100 µM (inactive). For the same compound, the GI50 (MOLT-4) was > 100 µM (inactive), the GI50 (A498) was > 100 µM (inactive) and the GI50 (NCI/ADR-RES) was > 100 µM (inactive). The GI50 (786-0) was > 100 µM (inactive), the GI50 (MDA-N) was > 100 µM (inactive) and the GI50 (SN12C) was > 100 µM (inactive). The GI50 (HCC 2998) was > 100 µM (inactive), the GI50 (SF-539) was > 100 µM (inactive) and the GI50 (A549) was > 100 µM (inactive). The GI50 (NCI-H226) was > 100 µM (inactive), the GI50 (UACC-257) was > 100 µM (inactive) and the GI50 (OVCAR-5) was > 100 µM (inactive). For the same compound, the GI50 (HCT-116) was > 100 µM (inactive), the GI50 (K562) was > 100 µM (inactive) and the GI50 (SR) was > 100 µM (inactive). The GI50 (NCI-H23) was > 100 µM (inactive), the GI50 (PC-3) was > 100 µM (inactive) and the GI50 (NCI-H460) was > 100 µM (inactive). The GI50 (SF-268) was > 100 µM (inactive), the GI50 (COLO 205) was > 100 µM (inactive) and the GI50 (MCF7) was > 100 µM (inactive).
